Assay results published in ChEMBL document CHEMBL6103592, “Discovery of novel thiazole-pleuromutilin derivatives with potent antibacterial activity” (Eur J Med Chem, 2025).
In brackets after ≈: the same amount, converted by molar mass.

Legend:
Type in all cases: functional
Escherichia coli = assay: Antibacterial activity against Escherichia coli ATCC 25922 assessed as inhibition of visible bacterial growth incubated for 24 hrs by CLSI based broth microdilution method
Streptococcus agalactiae = assay: Antibacterial activity against Streptococcus agalactiae assessed as inhibition of visible bacterial growth incubated for 24 hrs by CLSI based broth microdilution method
Staphylococcus aureus [1] = assay: Antibacterial activity against methicillin-resistant Staphylococcus aureus ATCC 43300 assessed as inhibition of visible bacterial growth incubated for 24 hrs by CLSI based broth microdilution method
Staphylococcus aureus [2] = assay: Antibacterial activity against Staphylococcus aureus ATCC 25923 assessed as inhibition of visible bacterial growth incubated for 24 hrs by CLSI based broth microdilution method
Mycoplasma = assay: Antibacterial activity against Mycoplasma F3 assessed as inhibition of visible bacterial growth incubated for 24 hrs by CLSI based broth microdilution method
Enterococcus faecalis = assay: Antibacterial activity against Enterococcus faecalis assessed as inhibition of visible bacterial growth incubated for 24 hrs by CLSI based broth microdilution method

Row | SMILES | MIC (Escherichia coli) [µg/mL] | MIC (Streptococcus agalactiae) [µg/mL] | MIC (Staphylococcus aureus [1]) [µg/mL] | MIC (Staphylococcus aureus [2]) [µg/mL] | MIC (Mycoplasma) [µg/mL] | MIC (Enterococcus faecalis) [µg/mL]
1 | C=C[C@]1(C)C[C@@H](OC(=O)CSc2nc(OC(=O)C(CC)CCCC)cs2)[C@]2(C)[C@H](C)CC[C@]3(CCC(=O)[C@H]32)[C@@H](C)[C@@H]1O (some centres undefined) | > 32 | 0.25 (≈ 0.403 µM) | 0.5 (≈ 0.807 µM) | 2 (≈ 3.23 µM) | 0.5 (≈ 0.807 µM) | > 32
2 | C=C[C@]1(C)C[C@@H](OC(=O)CSc2nc(OC(=O)c3ccccc3F)cs2)[C@]2(C)[C@H](C)CC[C@]3(CCC(=O)[C@H]32)[C@@H](C)[C@@H]1O | > 32 | 0.125 (≈ 0.203 µM) | 0.5 (≈ 0.812 µM) | 0.5 (≈ 0.812 µM) | 0.25 (≈ 0.406 µM) | > 32
3 | C=C[C@]1(C)C[C@@H](OC(=O)CSc2nc(OC(=O)C(C)(C)CC)cs2)[C@]2(C)[C@H](C)CC[C@]3(CCC(=O)[C@H]32)[C@@H](C)[C@@H]1O | > 32 | 0.063 (≈ 0.106 µM) | 0.5 (≈ 0.845 µM) | 0.25 (≈ 0.422 µM) | 0.125 (≈ 0.211 µM) | > 32
4 | C=C[C@]1(C)C[C@@H](OC(=O)CSc2nc(OC(=O)c3cccs3)cs2)[C@]2(C)[C@H](C)CC[C@]3(CCC(=O)[C@H]32)[C@@H](C)[C@@H]1O | > 32 | 0.25 (≈ 0.414 µM) | 1 (≈ 1.66 µM) | 0.5 (≈ 0.828 µM) | 0.25 (≈ 0.414 µM) | > 32
5 | C=C[C@]1(C)C[C@@H](OC(=O)CSc2nc(OC(=O)c3cccc(Br)c3)cs2)[C@]2(C)[C@H](C)CC[C@]3(CCC(=O)[C@H]32)[C@@H](C)[C@@H]1O | > 32 | 0.063 (≈ 0.0931 µM) | 0.5 (≈ 0.739 µM) | 2 (≈ 2.96 µM) | 0.25 (≈ 0.369 µM) | > 32
6 | C=C[C@]1(C)C[C@@H](OC(=O)CSc2nc(OC(=O)c3ccc(F)cc3)cs2)[C@]2(C)[C@H](C)CC[C@]3(CCC(=O)[C@H]32)[C@@H](C)[C@@H]1O | > 32 | 0.125 (≈ 0.203 µM) | 0.5 (≈ 0.812 µM) | 0.5 (≈ 0.812 µM) | 0.25 (≈ 0.406 µM) | > 32
7 | C=C[C@]1(C)C[C@@H](OC(=O)CSc2nc(OC(=O)c3ccccc3Br)cs2)[C@]2(C)[C@H](C)CC[C@]3(CCC(=O)[C@H]32)[C@@H](C)[C@@H]1O | > 32 | 0.063 (≈ 0.0931 µM) | 0.5 (≈ 0.739 µM) | 2 (≈ 2.96 µM) | 0.5 (≈ 0.739 µM) | > 32
8 | C=C[C@]1(C)C[C@@H](OC(=O)CSc2nc(OC(=O)c3ccc(C)cc3)cs2)[C@]2(C)[C@H](C)CC[C@]3(CCC(=O)[C@H]32)[C@@H](C)[C@@H]1O | > 32 | 0.063 (≈ 0.103 µM) | 1 (≈ 1.63 µM) | 0.25 (≈ 0.409 µM) | 0.5 (≈ 0.817 µM) | > 32
9 | C=C[C@]1(C)C[C@@H](OC(=O)CSc2nc(OC(=O)c3cccc(Cl)c3)cs2)[C@]2(C)[C@H](C)CC[C@]3(CCC(=O)[C@H]32)[C@@H](C)[C@@H]1O | > 32 | 0.063 (≈ 0.0996 µM) | 1 (≈ 1.58 µM) | 0.25 (≈ 0.395 µM) | 0.25 (≈ 0.395 µM) | > 32
10 | C=C[C@]1(C)C[C@@H](OC(=O)CSc2nc(OC(=O)CC(C)(C)C)cs2)[C@]2(C)[C@H](C)CC[C@]3(CCC(=O)[C@H]32)[C@@H](C)[C@@H]1O | > 32 | 0.125 (≈ 0.211 µM) | 0.5 (≈ 0.845 µM) | 0.5 (≈ 0.845 µM) | 0.25 (≈ 0.422 µM) | > 32
11 | C=C[C@]1(C)C[C@@H](OC(=O)CSc2nc(OC(=O)CCCCCCC)cs2)[C@]2(C)[C@H](C)CC[C@]3(CCC(=O)[C@H]32)[C@@H](C)[C@@H]1O | > 32 | 0.125 (≈ 0.202 µM) | 2 (≈ 3.23 µM) | 2 (≈ 3.23 µM) | 0.5 (≈ 0.807 µM) | > 32
12 | C=C[C@]1(C)C[C@@H](OC(=O)CSc2nc(OC(=O)CCC)cs2)[C@]2(C)[C@H](C)CC[C@]3(CCC(=O)[C@H]32)[C@@H](C)[C@@H]1O | > 32 | 0.125 (≈ 0.222 µM) | 1 (≈ 1.77 µM) | 1 (≈ 1.77 µM) | 0.25 (≈ 0.443 µM) | > 32
13 | C=C[C@]1(C)C[C@@H](OC(=O)CSc2nc(OC(=O)CC(C)C)cs2)[C@]2(C)[C@H](C)CC[C@]3(CCC(=O)[C@H]32)[C@@H](C)[C@@H]1O | > 32 | 0.125 (≈ 0.216 µM) | 0.5 (≈ 0.865 µM) | 1 (≈ 1.73 µM) | 0.125 (≈ 0.216 µM) | > 32
14 | CCC[C@@H]1C[C@@H](C(=O)N[C@@H]([C@H]2O[C@H](SC)[C@H](O)[C@@H](O)[C@H]2O)[C@H](C)Cl)N(C)C1 [CLINDAMYCIN] | 32 (≈ 75.3 µM) | > 32 | > 32 | > 32 | 1 (≈ 2.35 µM) | 16 (≈ 37.6 µM)
15 | C=C[C@]1(C)C[C@@H](OC(=O)CSC2=NC(=O)CS2)[C@]2(C)[C@H](C)CC[C@]3(CCC(=O)[C@H]32)[C@@H](C)[C@@H]1O | > 32 | 0.125 (≈ 0.253 µM) | 1 (≈ 2.03 µM) | 0.5 (≈ 1.01 µM) | 0.5 (≈ 1.01 µM) | > 32
16 | C=C[C@]1(C)C[C@@H](OC(=O)CSc2nc(OC(=O)c3cccc(C)c3)cs2)[C@]2(C)[C@H](C)CC[C@]3(CCC(=O)[C@H]32)[C@@H](C)[C@@H]1O | > 32 | 0.063 (≈ 0.103 µM) | 0.5 (≈ 0.817 µM) | 0.5 (≈ 0.817 µM) | 0.5 (≈ 0.817 µM) | > 32
17 | C=C[C@]1(C)C[C@@H](OC(=O)CSc2nc(OC(=O)c3cccc(OC)c3)cs2)[C@]2(C)[C@H](C)CC[C@]3(CCC(=O)[C@H]32)[C@@H](C)[C@@H]1O | > 32 | 0.063 (≈ 0.1 µM) | 1 (≈ 1.59 µM) | 1 (≈ 1.59 µM) | 0.25 (≈ 0.398 µM) | > 32
18 | C=C[C@]1(C)C[C@@H](OC(=O)CSc2nc(OC(=O)c3ccccc3Cl)cs2)[C@]2(C)[C@H](C)CC[C@]3(CCC(=O)[C@H]32)[C@@H](C)[C@@H]1O | > 32 | 0.125 (≈ 0.198 µM) | 0.5 (≈ 0.791 µM) | 1 (≈ 1.58 µM) | 0.25 (≈ 0.395 µM) | > 32
19 | C=C[C@]1(C)C[C@@H](OC(=O)CSc2nc(OC(=O)C3CCCCC3)cs2)[C@]2(C)[C@H](C)CC[C@]3(CCC(=O)[C@H]32)[C@@H](C)[C@@H]1O | > 32 | 0.125 (≈ 0.207 µM) | 1 (≈ 1.66 µM) | 1 (≈ 1.66 µM) | 0.5 (≈ 0.828 µM) | > 32
20 | C=C[C@]1(C)C[C@@H](OC(=O)CSc2nc(OC(=O)CCCCC)cs2)[C@]2(C)[C@H](C)CC[C@]3(CCC(=O)[C@H]32)[C@@H](C)[C@@H]1O | > 32 | 0.125 (≈ 0.211 µM) | 1 (≈ 1.69 µM) | 1 (≈ 1.69 µM) | 0.5 (≈ 0.845 µM) | > 32
21 | C=C[C@]1(C)C[C@@H](OC(=O)CSc2nc(OC(=O)C3CC3)cs2)[C@]2(C)[C@H](C)CC[C@]3(CCC(=O)[C@H]32)[C@@H](C)[C@@H]1O | > 32 | 0.063 (≈ 0.112 µM) | 0.5 (≈ 0.89 µM) | 1 (≈ 1.78 µM) | 0.25 (≈ 0.445 µM) | > 32
22 | C=C[C@]1(C)C[C@@H](OC(=O)CSc2nc(OC(=O)c3c(Cl)cc(Cl)cc3Cl)cs2)[C@]2(C)[C@H](C)CC[C@]3(CCC(=O)[C@H]32)[C@@H](C)[C@@H]1O | > 32 | 0.5 (≈ 0.713 µM) | 16 (≈ 22.8 µM) | 16 (≈ 22.8 µM) | 1 (≈ 1.43 µM) | > 32
23 | C=C[C@]1(C)C[C@@H](OC(=O)CSc2nc(OC(=O)c3ccc(Cl)cc3)cs2)[C@]2(C)[C@H](C)CC[C@]3(CCC(=O)[C@H]32)[C@@H](C)[C@@H]1O | > 32 | 0.063 (≈ 0.0996 µM) | 0.5 (≈ 0.791 µM) | 0.5 (≈ 0.791 µM) | 0.25 (≈ 0.395 µM) | > 32
24 | C=C[C@]1(C)C[C@@H](OC(=O)CSc2nc(OC(=O)c3ccc(Cl)cc3Cl)cs2)[C@]2(C)[C@H](C)CC[C@]3(CCC(=O)[C@H]32)[C@@H](C)[C@@H]1O | > 32 | 0.063 (≈ 0.0945 µM) | 0.5 (≈ 0.75 µM) | 2 (≈ 3 µM) | 0.5 (≈ 0.75 µM) | > 32
25 | C=C[C@]1(C)C[C@@H](OC(=O)CSc2nc(OC(=O)c3ccccc3C)cs2)[C@]2(C)[C@H](C)CC[C@]3(CCC(=O)[C@H]32)[C@@H](C)[C@@H]1O | > 32 | 0.063 (≈ 0.103 µM) | 1 (≈ 1.63 µM) | 2 (≈ 3.27 µM) | 1 (≈ 1.63 µM) | > 32
26 | C=C[C@]1(C)C[C@@H](OC(=O)CSc2nc(OC(=O)c3ccccc3)cs2)[C@]2(C)[C@H](C)CC[C@]3(CCC(=O)[C@H]32)[C@@H](C)[C@@H]1O | > 32 | 0.063 (≈ 0.105 µM) | 1 (≈ 1.67 µM) | 0.5 (≈ 0.836 µM) | 0.25 (≈ 0.418 µM) | > 32
27 | C=C[C@]1(C)C[C@@H](OC(=O)CSc2nc(OC(=O)c3cccc(F)c3)cs2)[C@]2(C)[C@H](C)CC[C@]3(CCC(=O)[C@H]32)[C@@H](C)[C@@H]1O | > 32 | 0.125 (≈ 0.203 µM) | 0.5 (≈ 0.812 µM) | 2 (≈ 3.25 µM) | 0.5 (≈ 0.812 µM) | > 32
28 | C=C[C@]1(C)C[C@@H](OC(=O)CSc2nc(OC(=O)C3CCC3)cs2)[C@]2(C)[C@H](C)CC[C@]3(CCC(=O)[C@H]32)[C@@H](C)[C@@H]1O | > 32 | 0.063 (≈ 0.109 µM) | 0.5 (≈ 0.868 µM) | 1 (≈ 1.74 µM) | 0.5 (≈ 0.868 µM) | > 32
29 | C=C[C@]1(C)C[C@@H](OC(=O)CSc2nc(OC(=O)C3CCCC3)cs2)[C@]2(C)[C@H](C)CC[C@]3(CCC(=O)[C@H]32)[C@@H](C)[C@@H]1O | > 32 | 0.25 (≈ 0.424 µM) | 1 (≈ 1.7 µM) | 2 (≈ 3.39 µM) | 0.25 (≈ 0.424 µM) | > 32
